Results from BindingDB's records for doi:10.1016/0960-894X(94)85036-4 (1994).
pIC50: −log10 of the molar value.

Target: Type-1 angiotensin II receptor (Rattus norvegicus)
Experiment: […] inhibitory concentration against Angiotensin II receptor, type 1 of rat adrenal membrane

pIC50: 8.40
SMILES: CCCCOC(=O)NS(=O)(=O)c1ccccc1-c1ccc(Cn2c(CCCC)nc3ccc(NC(=O)N(C)C(C)C)cc3c2=O)cc1 [2-Butyl-3-(2'-(butyloxycarbonylaminosulphonyl)-biphenyl-4-ylmethyl)-6-(N-isopropyl-N-methyl-aminocarbonylamino)-3H-quinazolin-4-one]
